Experimental data taken from article PMC4861708 (Frontiers in Cell and Developmental Biology, 2016).
≈ marks a conversion by molar mass, not a printed value. Where a SMILES comes first, the peptide text is derived from it. [ ]: non-standard residue; d: D form. The star is where a group is joined. Orn(α-tetramethylguanidino) = CN(C)C(=N[C@@H](CCCN)C(=O)*)N(C)C; Orn = NCCC[C@H](N)C(=O)O

Experiments:
[1] = tested on: P. aeruginosa DSM 1117 (ATCC 27853); assay type: cell-based, Pseudomonas aeruginosa; conditions: DSM 1117, 24 h
Experimental: MICs of P. aeruginosa strains DSM 1117 (ATCC 27853), DSM 3227 (ATCC 19429), and DSM 9644 were determined in a microdilution broth assay using 50 or 100% MHB (11.5 and 23 g/L MHB, respectively) whereas MICs of E. coli DSM 1103 (ATCC 25922) and K. pneumoniae DSM 681 (ATCC 10031) were determined in TSB (30 g/L TSB). Peptides (1 g/L in water) were serially two-fold diluted in a 96-well microtiter plate (PS, sterile, flat bottom) in 50 μL of the corresponding medium to final concentrations of 512–4 μg/mL. Bacteria were grown in nutrient broth overnight and diluted to a cell concentration of 1.5 × 10^7 cells/mL in the corresponding medium. Cell densities were determined by using the McFarland standard as reference. An aliquot (50 μL) of the cell culture was added to each well and incubated (37°C, 24 h). The OD595 was determined in a SpectraMax 340PC (Molecular Devices, Sunnyvale, USA). Additionally, MIC values were also determined for high bacteria densities (5 × 10^8 cells/mL) corresponding to the conditions used for TEM, as described above.

[2] = tested on: E. coli DSM 1103 (ATCC 25922); assay type: cell-based, Escherichia coli; conditions: DSM 1103, 24 h
P. aeruginosa DSM 1117 = assay: Transmission electron microscopy, morphological changes; assay type: cell-based, Pseudomonas aeruginosa; conditions: 1 h
Experimental: Peptide-bacteria mixtures were fixed (2% glutaraldehyde, 5 mmol/L CaCl2, 10 mmol/L MgCl2 in 0.1 mol/L sodium cacodylate buffer, pH 7.4) overnight at 4°C. […] Samples were rinsed with distilled water (5 × 10 min), incubated with aqueous uranylacetate (0.5% w/v) for 1 h at 4°C, washed with distilled water (3 × 10 min), and embedded in Epon. The hardened blocks were sectioned (50 nm) on a UCT ultramicrotome (Leica, Vienna, Austria), stained with uranyl acetate and lead citrate on an AC20 system (Leica), and visualized at a Tecnai 12 electron microscope (FEI, Eindhoven, The Netherlands) at 80 kV. Morphological effects were quantified on average for 25 cells per condition.

P. aeruginosa elastase = biological target: T1, P. aeruginosa elastase (Pseudomonas aeruginosa, UniProt P14756); assay: Elastase assay (proteolytic stability); assay type: in vitro ADME; conditions: after 30 min and all later time points, elastase 12 units/mL, pH 8.3, 37°C
T1 construct: purchased Merck (Darmstadt, Germany)
Experimental: A stock solution of P. aeruginosa elastase (0.26 U/μL) was prepared in Tris-HCl (5 mmol/L, pH 8.3) and stored at −80°C. Peptides (0.5 g/L in 5 mmol/L Tris-HCl, pH 8.3) were incubated with elastase (0.012 U/μL) at 37°C under constant shaking (450 rpm) for 0, 0.5, 2, 4, and 6 h. Aliquots (10.5 μL) were precipitated with a mixture of acetonitrile and ethanol (1:1 v/v) containing 0.1% TFA (21 μL), centrifuged, the supernatant transferred into a new tube, and dried in vacuum. Samples were dissolved in aqueous acetonitrile (3% v/v) containing TFA (0.1% v/v) and analyzed by RP-HPLC using the conditions described above.

[3] = tested on: K. pneumoniae DSM 681 (ATCC 10031); assay type: cell-based, Klebsiella pneumoniae; conditions: DSM 681, 24 h
Summary of the method: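 Broth microdilution MIC: P. aeruginosa strains in 50 or 100% MHB, K. pneumoniae in TSB; peptides 512–4 μg/mL final. Inoculum from 1.5 × 10^7 cells/mL suspension, also high density 5 × 10^8 cells/mL; 37°C, 24 h, growth read at OD595.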

T1 sequence (P14756 198-498): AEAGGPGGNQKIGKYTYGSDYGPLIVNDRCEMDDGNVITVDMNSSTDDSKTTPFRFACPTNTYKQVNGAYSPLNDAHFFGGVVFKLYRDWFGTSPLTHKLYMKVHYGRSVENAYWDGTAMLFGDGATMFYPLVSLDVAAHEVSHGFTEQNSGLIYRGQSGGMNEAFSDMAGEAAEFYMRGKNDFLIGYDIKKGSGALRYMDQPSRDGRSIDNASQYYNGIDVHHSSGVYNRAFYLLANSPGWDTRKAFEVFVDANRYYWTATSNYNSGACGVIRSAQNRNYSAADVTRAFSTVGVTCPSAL

Structure (SMILES): CC[C@H](C)[C@H](NC(=O)[C@H](CCCN)N=C(N(C)C)N(C)C)C(=O)N[C@@H](CCCN)C(=O)N[C@H](C(=O)N[C@@H](CCCN)C(=O)N[C@@H](CCCNC(=N)N)C(=O)N1CCC[C@H]1C(=O)N[C@H](C(=O)N[C@@H](Cc1ccc(O)cc1)C(=O)N[C@@H](CCCN)C(=O)N1CCC[C@H]1C(=O)N[C@@H](CCCNC(=N)N)C(=O)N1CCC[C@H]1C(=O)N[C@@H](CCCNC(=N)N)C(=O)N1CCC[C@H]1C(=O)N1CCC[C@H]1C(=O)N[C@@H](Cc1c[nH]cn1)C(=O)N1CCC[C@H]1C(=O)N[C@@H](CCCNC(=N)N)C(=O)N[C@@H](CC(C)C)C(=O)O)C(C)C)[C@@H](C)CC [Api795, gu-O(IO)2RPVYOPRPRPPHPRL-OH] ({Orn(α-tetramethylguanidino)}-I[Orn]I[Orn]RPVY[Orn]PRPRPPHPRL-OH)
- MIC P. aeruginosa DSM 1117, high inoculum [1]: 16 µg/mL (≈ 6.35 µM)
- MIC E. coli ATCC 25922 [2]: 8 µg/mL (≈ 3.18 µM)
- MIC E. coli DSM 1103, high inoculum [2]: 32 µg/mL (≈ 12.7 µM)
- Cells spongy (P. aeruginosa DSM 1117; 4 µg/mL): 0%
- DNA/ribosomes relocalization: +++, extremely relocalized (P. aeruginosa DSM 1117; 4 µg/mL): 0%
- DNA/ribosomes relocalization: ++, relocalized (P. aeruginosa DSM 1117; 4 µg/mL): 23%
- DNA/ribosomes relocalization: +, starting (P. aeruginosa DSM 1117; 4 µg/mL): 37%
- DNA/ribosomes relocalization: -, no (P. aeruginosa DSM 1117; 4 µg/mL): 40%
- Membrane: b, broken (P. aeruginosa DSM 1117; 4 µg/mL): 0%
- Membrane: i, intact (P. aeruginosa DSM 1117; 4 µg/mL): 100%
- Membrane: r, ruptured (P. aeruginosa DSM 1117; 4 µg/mL): 0%
- Ribosome clustering: +++, extremely clustered (P. aeruginosa DSM 1117; 4 µg/mL): 0%
- Ribosome clustering: ++, clustered (P. aeruginosa DSM 1117; 4 µg/mL): 0%
- Ribosome clustering: +, starting (P. aeruginosa DSM 1117; 4 µg/mL): 70%
- Ribosome clustering: -, no (P. aeruginosa DSM 1117; 4 µg/mL): 30%
- Vesicle release (P. aeruginosa DSM 1117; 4 µg/mL): 67%
- dissociated Fragments: ++, long and thin (P. aeruginosa DSM 1117; 4 µg/mL): 3%
- dissociated Fragments: +, small and thin (P. aeruginosa DSM 1117; 4 µg/mL): 3%
- dissociated Fragments: -, no (P. aeruginosa DSM 1117; 4 µg/mL): 93%
- dissociated Fragments: LV, large vesicles (P. aeruginosa DSM 1117; 4 µg/mL): 0%
- Cells spongy (P. aeruginosa DSM 1117; 16 µg/mL): 0%
- DNA/ribosomes relocalization: +++, extremely relocalized (P. aeruginosa DSM 1117; 16 µg/mL): 0%
- DNA/ribosomes relocalization: ++, relocalized (P. aeruginosa DSM 1117; 16 µg/mL): 10%
- DNA/ribosomes relocalization: +, starting (P. aeruginosa DSM 1117; 16 µg/mL): 40%
- DNA/ribosomes relocalization: -, no (P. aeruginosa DSM 1117; 16 µg/mL): 50%
- Membrane: b, broken (P. aeruginosa DSM 1117; 16 µg/mL): 0%
- Membrane: i, intact (P. aeruginosa DSM 1117; 16 µg/mL): 100%
- Membrane: r, ruptured (P. aeruginosa DSM 1117; 16 µg/mL): 0%
- Ribosome clustering: +++, extremely clustered (P. aeruginosa DSM 1117; 16 µg/mL): 0%
- Ribosome clustering: ++, clustered (P. aeruginosa DSM 1117; 16 µg/mL): 0%
- Ribosome clustering: +, starting (P. aeruginosa DSM 1117; 16 µg/mL): 30%
- Ribosome clustering: -, no (P. aeruginosa DSM 1117; 16 µg/mL): 70%
- dissociated Fragments: ++, long and thin (P. aeruginosa DSM 1117; 16 µg/mL): 0%
- dissociated Fragments: +, small and thin (P. aeruginosa DSM 1117; 16 µg/mL): 0%
- dissociated Fragments: -, no (P. aeruginosa DSM 1117; 16 µg/mL): 100%
- dissociated Fragments: LV, large vesicles (P. aeruginosa DSM 1117; 16 µg/mL): 0%
- Cells spongy (P. aeruginosa DSM 1117; 64 µg/mL): 0%
- DNA/ribosomes relocalization: ++, relocalized (P. aeruginosa DSM 1117; 64 µg/mL): 67%
- DNA/ribosomes relocalization: +, starting (P. aeruginosa DSM 1117; 64 µg/mL): 10%
- DNA/ribosomes relocalization: -, no (P. aeruginosa DSM 1117; 64 µg/mL): 10%
- Membrane: b, broken (P. aeruginosa DSM 1117; 64 µg/mL): 10%
- Membrane: i, intact (P. aeruginosa DSM 1117; 64 µg/mL): 90%
- Membrane: r, ruptured (P. aeruginosa DSM 1117; 64 µg/mL): 3%
- Ribosome clustering: +++, extremely clustered (P. aeruginosa DSM 1117; 64 µg/mL): 7%
- Ribosome clustering: ++, clustered (P. aeruginosa DSM 1117; 64 µg/mL): 7%
- Ribosome clustering: +, starting (P. aeruginosa DSM 1117; 64 µg/mL): 77%
- Ribosome clustering: -, no (P. aeruginosa DSM 1117; 64 µg/mL): 10%
- Vesicle release (P. aeruginosa DSM 1117; 64 µg/mL): 50%
- dissociated Fragments: ++, long and thin (P. aeruginosa DSM 1117; 64 µg/mL): 3%
- dissociated Fragments: +, small and thin (P. aeruginosa DSM 1117; 64 µg/mL): 0%
- dissociated Fragments: -, no (P. aeruginosa DSM 1117; 64 µg/mL): 97%
- dissociated Fragments: LV, large vesicles (P. aeruginosa DSM 1117; 64 µg/mL): 0%
- Cells spongy (P. aeruginosa DSM 1117; 512 µg/mL): 10%
- DNA/ribosomes relocalization: +++, extremely relocalized (P. aeruginosa DSM 1117; 512 µg/mL): 100%
- DNA/ribosomes relocalization: ++, relocalized (P. aeruginosa DSM 1117; 512 µg/mL): 0%
- DNA/ribosomes relocalization: +, starting (P. aeruginosa DSM 1117; 512 µg/mL): 0%
- DNA/ribosomes relocalization: -, no (P. aeruginosa DSM 1117; 512 µg/mL): 0%
- Membrane: b, broken (P. aeruginosa DSM 1117; 512 µg/mL): 80%
- Membrane: i, intact (P. aeruginosa DSM 1117; 512 µg/mL): 20%
- Membrane: r, ruptured (P. aeruginosa DSM 1117; 512 µg/mL): 63%
- Ribosome clustering: +++, extremely clustered (P. aeruginosa DSM 1117; 512 µg/mL): 93%
- Ribosome clustering: ++, clustered (P. aeruginosa DSM 1117; 512 µg/mL): 7%
- Ribosome clustering: +, starting (P. aeruginosa DSM 1117; 512 µg/mL): 0%
- Ribosome clustering: -, no (P. aeruginosa DSM 1117; 512 µg/mL): 0%
- Vesicle release (P. aeruginosa DSM 1117; 512 µg/mL): 7%
- dissociated Fragments: +, small and thin (P. aeruginosa DSM 1117; 512 µg/mL): 0%
- dissociated Fragments: -, no (P. aeruginosa DSM 1117; 512 µg/mL): 87%
- dissociated Fragments: LV, large vesicles (P. aeruginosa DSM 1117; 512 µg/mL): 0%
- membranes ruptured, % of the cells (P. aeruginosa DSM 1117; 512 µg/mL): 80%
- membranes ruptured, % of the cells (P. aeruginosa DSM 1117; 4 × MIC): 10%
- Peptide detected with elastase (P. aeruginosa elastase): 92 ± 4%
- MIC K. pneumoniae DSM 681 [3]: 8 µg/mL (≈ 3.18 µM)
